Holding throughout (type): functional, cell-based
For assay [1], the system named is MOLT-4. Description: Cytotoxicity against human MOLT4 cells assessed as growth inhibition after 72 hrs by MTT assay. The note with it: MOLT-4, 72 h. On the technique in general: Formazan colour is commonly taken as a measure of viable cells.
The test system of assay [2] is SUP-T1. Put plainly: Cytotoxicity against human SupT1 cells assessed as growth inhibition after 72 hrs by MTT assay. As to conditions: SUP-T1, 72 h.
In assay [3] the test system is U-937. Put plainly: Cytotoxicity against human U937 cells assessed as growth inhibition at 20 ug/ml after 72 hrs by MTT assay.
In assay [4] the test system is K562. Description: Cytotoxicity against human K562 cells assessed as growth inhibition at 20 ug/ml after 72 hrs by MTT assay.
Assay [5] deals with U-937. Description: Cytotoxicity against human U937 cells assessed as growth inhibition after 72 hrs by MTT assay. As to conditions: U-937, 72 h.
Assay [6] deals with K562. Put plainly: Cytotoxicity against human K562 cells assessed as growth inhibition after 72 hrs by MTT assay. As to conditions: K562, 72 h.

Calls of active or inactive are those of the source. No cut-off for these calls is given here.

With `C=C(CC[C@@H](C)[C@H]1CC[C@H]2[C@@H]3CC=C4C[C@@H](O)CC[C@]4(O)[C@H]3CC[C@]12C)C(C)C`, the IC50 (usually the concentration that inhibits the measured activity by half) came to 18.3 µM in assay [1] and 25.5 µM in assay [2]. For the same compound, the “growth inhibition (GI)” value in assay [3] and in assay [4] was “inactive” each time.
Take `COc1cccc2c1C(=O)c1c(O)c3c(c(O)c1C2=O)C[C@@](O)(C(=O)CO)C[C@@H]3O[C@H]1C[C@H](N)[C@H](O)[C@H](C)O1` [DOXORUBICIN]: the IC50 was found to be 420 nM in assay [5], 0.04 µM in assay [2] and 280 nM in assay [6].

Values taken from ChEMBL document CHEMBL4428112, “Columnaristerol A, a novel 19-norsterol from the Formosan octocoral Nephthea columnaris” (Bioorg Med Chem Lett, 2016).
